“Also recorded” adds a separate entry of the source.
Legend:
mutant Mcl-1 R263A = molecular target: T1, mutant Mcl-1 R263A (Homo sapiens, UniProt Q07820, R263A); experiment: BLI-based direct binding assay; settings: compared with wild-type Mcl-1
T1 construct: human Mcl-1 (residues 171–323); His tag (pHis-TEV vector) (N); made in house; host or cells: E. coli Rosetta2 DE3
Protocol: Mcl-1 and mutant Mcl-1 R263A proteins were biotinylated using the Thermo EZ-link Sulpho-NHS-LC-biotin biotinylation kit (cat. 21435). Protein and biotin were mixed in a 1:1 molar ratio in PBS on ice for 2 hours. The reaction mixture was dialyzed in PBS buffer to remove excess biotin. BLI experiments were performed using an OctetRED96 instrument from PALL/ForteBio. All experiments were performed at 30 °C using PBS (Gibco, #10010-23), and 0.005% Tween 20 as the assay buffer. Assays were conducted in 96-well, black, microplates (Greiner bio-one, #655209) containing the protein solutions for immobilization, pure assay buffer for dissociation, and serial dilutions of compounds in the presence of 5% DMSO to be tested. During the experiment, sample plates were continuously shaken at 1000 rpm. Biotinylated proteins were immobilized on Super Streptavidin (SSA) biosensors by dipping sensors into plate wells containing protein solutions. Biotinylated blocked Streptavidin sensors were used as control sensors prepared by the protocol provided from the manufacturer. Association (3 Minutes) and dissociation (3 Minutes) cycles of compounds were started by dipping sensors to compound wells with different tested concentrations as well as in pure buffer wells. Buffer-only reference was included in all assays. […]

Mcl-1/Noxa interaction = system: Mcl-1/Noxa interaction; parameters: method as in PubChem BioAssay AID 1417; settings: Dose Response Confirmation for Mcl-1/Noxa Interaction Inhibitors; ref PubChem BioAssay AID 1417; cited from earlier work
[1] = system: Bak−/− single knockout MEFs; experiment: MEF cell death, propidium iodide flow cytometry; type: cell-based, mouse; settings: increasing concentrations, 15 h
Protocol: (§1) MEF cells, including wild-type, Bax/Bak double knockout, Bax−/− single knockout, and Bak−/− single knockout were tested and characterized (Supplementary Fig. S3). The cells were cultured in DMEM (Life Technologies), supplemented with 10% fetal bovine serum (FBS) (Thermo Scientific HyClone) and 1% Penicillin/streptomycin solution (Life Technologies). The retrovirally transduced lymphoma cells isolated from Eμ-myc transgenic mice were provided by Ricky W. Johnstone at the University of Melbourne, Melbourne, Australia and cultured as previously described[37],[65].
(§2) MEFs were seeded in 24-well plates at 0.5 × 10^5 cells/well, left to adhere for 5 hours and then treated for 15 hours with increasing concentrations of the compounds. The cells were harvested, washed with phosphate-buffered saline (PBS) and stained with 0.025 mg/ml propidium iodide (MP Biomedicals). The percentage of the propidium iodide positive population was determined by flow cytometry and calculated using WinList 3.0.

[2] = system: Bax−/− single knockout MEFs; experiment: MEF cell death, propidium iodide flow cytometry; type: cell-based, mouse; settings: increasing concentrations, 15 h
Protocol: as §1, §2

[3] = system: Eµ-myc lymphoma cells overexpressing Bcl-2; experiment: Eµ-myc lymphoma cell viability, flow cytometry; type: cell-based, mice; settings: increasing concentrations
Protocol: as §1
(§3) The Mcl-1, Bcl-2, and Bcl-xL retroviral transduced lymphoma Eμ-myc cells were seeded in 12-well plates at 0.5 × 10^6 cells/well. […] The cells were harvested and stained with violet LIVE/DEAD Fixable Dead Cell Stain Kit (Invitrogen) according to manufacturer’s protocol. The percentage of fluorescent positive cells was determined by flow cytometry and calculated using WinList 3.0.

[4] = system: Eµ-myc lymphoma cells overexpressing Mcl-1; experiment: Eµ-myc lymphoma cell viability, flow cytometry; type: cell-based, mice; settings: increasing concentrations, 15 h
Protocol: as §1, §3

T1 sequence (Q07820 171-323 R263A): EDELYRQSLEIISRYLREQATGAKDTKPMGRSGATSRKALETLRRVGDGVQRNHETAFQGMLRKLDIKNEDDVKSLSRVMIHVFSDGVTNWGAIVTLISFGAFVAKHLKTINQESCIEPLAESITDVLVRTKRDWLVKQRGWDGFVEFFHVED

## O=C(CSc1nnc(-c2ccco2)c(-c2ccco2)n1)Nc1ccccc1 [Compound 19]
Mutant Mcl-1 R263A
  binding to mutant R263A Mcl-1 (BLI): no appreciable binding
Mcl-1/Noxa interaction
  IC50: 3.1 µM

## O=C(CSc1nnc(-c2ccco2)c(-c2ccco2)n1)Nc1cccc(C(F)(F)F)c1 [Compound 39]
[1]
  cell death in Bak−/− MEFs: rescued the cells
[2]
  cell death in Bax−/− MEFs: rescued the cells
[3]
  effect on Eµ-myc cells overexpressing Bcl-2: selectivity; also recorded: minimal effect
[4]
  killing of Eµ-myc cells overexpressing Mcl-1: selective killing; also recorded: selectively kills Mcl-1 dependent cell lines

## c1ccc(CCCCSc2nnc(-c3ccco3)c(-c3ccco3)n2)cc1 [Compound 44]
[3]
  effect on Eµ-myc cells overexpressing Bcl-2: selectivity
[4]
  killing of Eµ-myc cells overexpressing Mcl-1: killing
